Measurements published in publication PMC2858402 (Chemical biology & drug design, 2009).

What was measured:
[1] = biological target: Full-length DnaK (FL, flDnaK) (Escherichia coli, UniProt P0A6Y8); experiment: isothermal titration calorimetry; assay type: binding
[2] = biological target: β-domain of DnaK (SBD), residues 393–507 (Escherichia coli, UniProt P0A6Y8); experiment: isothermal titration calorimetry; assay type: binding
Sequence of β-domain of DnaK (SBD), residues 393–507 (P0A6Y8 393-507): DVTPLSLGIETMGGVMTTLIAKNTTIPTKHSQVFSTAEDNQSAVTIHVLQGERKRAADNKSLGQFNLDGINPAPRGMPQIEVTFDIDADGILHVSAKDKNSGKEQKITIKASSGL

Sequence of Full-length DnaK (FL, flDnaK) (P0A6Y8 2-638): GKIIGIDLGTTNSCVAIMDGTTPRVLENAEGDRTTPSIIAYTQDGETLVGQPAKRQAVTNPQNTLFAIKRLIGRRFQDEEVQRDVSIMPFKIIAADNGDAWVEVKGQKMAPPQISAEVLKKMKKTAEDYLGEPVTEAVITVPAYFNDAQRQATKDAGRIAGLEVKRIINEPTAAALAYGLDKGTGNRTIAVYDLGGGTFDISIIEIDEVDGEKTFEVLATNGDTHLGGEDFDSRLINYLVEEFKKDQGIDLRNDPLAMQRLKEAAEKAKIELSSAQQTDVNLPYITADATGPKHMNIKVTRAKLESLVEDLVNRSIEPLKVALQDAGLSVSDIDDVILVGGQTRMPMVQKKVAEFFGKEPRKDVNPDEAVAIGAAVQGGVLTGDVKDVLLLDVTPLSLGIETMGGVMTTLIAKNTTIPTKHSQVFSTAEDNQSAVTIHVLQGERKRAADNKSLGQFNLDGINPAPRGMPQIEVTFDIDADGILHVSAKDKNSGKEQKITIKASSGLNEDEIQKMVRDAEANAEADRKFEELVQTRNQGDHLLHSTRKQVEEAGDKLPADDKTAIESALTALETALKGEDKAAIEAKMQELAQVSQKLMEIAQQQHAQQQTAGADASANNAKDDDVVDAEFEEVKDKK

## O=C(NCc1ccccc1O)c1cccs1 [F8, N-(2-hydroxybenzyl)thiophene-2-carboxamide]
[1]
  Kd: 2300 nM

## O=C(Nc1ccc2[nH]ccc2c1)c1cccs1 [D7, N-(1H-indol-5-yl)thiophene-2-carboxamide]
[1]
  Kd: 12700 nM
[2]
  Kd: 4900 nM

## Nc1ncnc2c1ncn2[C@@H]1O[C@H](COP(=O)(O)OP(=O)(O)OP(=O)(O)O)[C@@H](O)[C@H]1O [ATP]
[1]
  Kd: 10 nM

## O=C(NCc1cc(Cl)cc(Cl)c1)c1cccs1 [F9, N-(3,5-dichlorobenzyl)thiophene-2-carboxamide]
[1]
  Kd: 2800 nM

## O=C(c1cccs1)N1CCN(CCO)CC1 [F10, (4-(2-hydroxyethyl)piperazin-1-yl)(thiophen-2-yl)methanone]
[1]
  Kd: 16700 nM

## O=C(NCc1c(Cl)cccc1Cl)c1cccs1 [F7, N-(2,6-dichlorobenzyl)thiophene-2-carboxamide]
[1]
  Kd: 1500 nM

## O=C(NCc1cccc2ccccc12)c1cccs1 [D5, N-(naphthalen-1-ylmethyl)thiophene-2-carboxamide]
[1]
  Kd: 1700 nM
[2]
  Kd: 1000 nM

## O=C(NCc1cccc2ccsc12)c1cccs1 [D10, N-(benzo[b]thiophen-7-ylmethyl)thiophene-2-carboxamide]
[1]
  Kd: 200 nM

## O=C(Nc1ncc2ccccc2n1)c1cccs1 [D9, N-(quinazolin-2-yl)thiophene-2-carboxamide]
[2]
  Kd: 1500 nM

## O=C(NCc1ccc(Cl)c(Cl)c1)c1cccs1 [F6, N-(3,4-dichlorobenzyl)thiophene-2-carboxamide]
[1]
  Kd: 7300 ± 6400 nM
